Assay results published in article PMC6272155, “Plasmin Regulation through Allosteric, Sulfated, Small Molecules” (Molecules, 2015).

How the values were obtained:
Assay type in all cases: biochemical
factor Xa = factor Xa (Homo sapiens, UniProt P00742); assay: Direct inhibition of factor Xa, chromogenic substrate (Spectrozyme FXa) hydrolysis assay
Experimental: (§1) The rationale behind targeting an allosteric site on plasmin was to achieve inhibition specificity over the closely related serine proteases. In contrast to active sites, allosteric sites are not as highly conserved and therefore present a powerful opportunity for discovering a selective modulator of enzyme function. […] Using appropriate small peptide-based chromogenic substrates, the fractional residual thrombin and factor Xa activities were measured under the physiological condition of pH 7.4 and 37 °C.
(§2) Briefly, to each well of a 96-well microplate containing 185 μL of 20–50 mM Tris-HCl buffer, pH 7.4, containing 100–150 mM NaCl, 0.1% PEG8000 and 0.02% Tween80 at either 25 °C (thrombin) or 37 °C (factor Xa) was added 5 μL of 10–20 mM inhibitor (or vehicle) and 5 μL of the enzyme. The final concentrations of the enzymes were 6 nM (thrombin) and 1.09 nM (factor Xa). After 10 min incubation, 5 μL 1.0 mM Spectrozyme TH or 2.5 mM Spectrozyme FXa, was rapidly added and the residual enzyme activity was measured from the initial rate of increase in A405. Relative residual enzyme activity (Y, activity in the presence of inhibitor to that in its absence) as a function of the concentration of inhibitor was measured.

thrombin = thrombin (Homo sapiens, UniProt P00734); assay: Direct inhibition of thrombin, chromogenic substrate (Spectrozyme TH) hydrolysis assay; details: pH 7.4, 37 °C; read-out: IC50 against thrombin
Experimental: as §1, §2

human Lys-plasmin = molecular target: T1, human Lys-plasmin (Homo sapiens, UniProt P00747); assay: Direct inhibition of human Lys-plasmin, chromogenic substrate (Spectrozyme PL) hydrolysis assay
T1 construct: purchased Haematologic Technologies (Essex Junction, VT, USA)
T1 sequence (P00747 581-810 limits assumed): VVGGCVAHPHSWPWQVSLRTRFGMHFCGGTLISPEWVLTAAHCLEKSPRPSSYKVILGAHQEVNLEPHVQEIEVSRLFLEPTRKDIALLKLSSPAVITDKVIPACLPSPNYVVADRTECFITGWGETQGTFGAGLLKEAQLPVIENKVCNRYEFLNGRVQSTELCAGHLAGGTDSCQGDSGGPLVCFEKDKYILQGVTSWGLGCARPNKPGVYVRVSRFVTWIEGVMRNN
T1 sequence (P00747 97-580 partner limits assumed): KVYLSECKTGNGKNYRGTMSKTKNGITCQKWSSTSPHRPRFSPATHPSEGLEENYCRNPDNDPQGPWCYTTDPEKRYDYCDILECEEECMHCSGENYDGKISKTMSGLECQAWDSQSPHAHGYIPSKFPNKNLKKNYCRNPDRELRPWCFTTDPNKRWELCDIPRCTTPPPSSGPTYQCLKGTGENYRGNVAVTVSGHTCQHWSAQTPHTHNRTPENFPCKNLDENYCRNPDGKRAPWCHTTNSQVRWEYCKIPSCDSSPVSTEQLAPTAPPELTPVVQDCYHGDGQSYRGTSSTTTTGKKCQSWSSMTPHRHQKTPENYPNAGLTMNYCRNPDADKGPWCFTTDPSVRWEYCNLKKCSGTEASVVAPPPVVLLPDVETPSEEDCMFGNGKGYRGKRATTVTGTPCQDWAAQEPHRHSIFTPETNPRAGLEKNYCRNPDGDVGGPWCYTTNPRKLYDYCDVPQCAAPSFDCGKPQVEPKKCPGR
Experimental: Important to emphasize here that the potency of NSGM-based inhibitors was evaluated by measuring their IC50's (X-axis), whereas the efficacy was assessed by measuring the overall change in residual plasmin activity (%) (ΔY = YM − Y0) (Y-axis).
Direct inhibition of human Lys-plasmin was measured using a chromogenic substrate hydrolysis assay on a microplate reader (FlexStation III, Molecular Devices, Sunnyvale, CA, USA), as reported earlier. Briefly, to each well of a 96-well microplate containing 85 µL of 50 mM Tris-HCl buffer, pH 7.4, containing 150 mM NaCl, 0.1% PEG8000, and 0.02% Tween80 at 37 °C was added 5 µL potential NSGM-based inhibitor (20–100 mM aqueous solution) (or vehicle alone) and 5 µL enzyme. The final concentration of the enzyme was 20 nM. After 5 min incubation, 5 µL of 1 mM Spectrozyme PL was rapidly added and the residual enzyme activity was measured from the initial rate of increase in A405. Relative residual enzyme activity (Y) as a function of the concentration of sulfated molecule was fitted using logistic equation 1 to obtain the potency (IC50), efficacy (ΔY) and Hill slope (HS) of inhibition. In this equation, YM and Y0 are the maximal and minimal values of Y: (1) Y = Y0+YM−Y0/1+10^(log[Inhibitor]0 − logIC50) ×HS […]
In this equation, Y is the ratio of residual plasmin activity in the presence of inhibitor to that in its absence (fractional residual activity). YM and Y0 are the maximum and minimum possible values of the fractional residual proteinase activity. The difference between these two values is used to evaluate the inhibitor’s efficacy to reduce the residual enzyme activity under the assay condition.
Direct inhibition of human plasmin by sulfated small molecules. Direct inhibition of plasmin was measured using a chromogenic substrate hydrolysis assay on a microplate reader (FlexStation III, Molecular Devices), as reported earlier. Briefly, to each well of a 96-well microplate containing […]
Tween80 at 37 °C was added 5 µL potential inhibitor (or vehicle alone) and 5 µL enzyme. The final concentration of the enzyme was 20 nM. After 5 min incubation, 5 µL of 1 mM Spectrozyme PL was rapidly added and the residual enzyme activity was measured from the initial rate of increase in A405.
Relative residual enzyme activity (Y, activity in the presence of inhibitor to that in its absence) as a function of the concentration of SPGG derivative was fitted using logistic Equation (1) to obtain the potency (IC50), efficacy (ΔY) and Hill slope (HS) of inhibition. In this equation, YM and Y0 are the maximal and minimal values of Y.

human plasmin = molecular target: T2, human plasmin (Homo sapiens, UniProt P00747); assay: Michaelis-Menten kinetics of Spectrozyme PL hydrolysis by human plasmin in presence of inhibitor
T2 construct: purchased Haematologic Technologies (Essex Junction, VT, USA)
T2 sequence (P00747 581-810 limits assumed): as the sequence (P00747 581-810 limits assumed) above
T2 sequence (P00747 97-580 partner limits assumed): as the sequence (P00747 97-580 partner limits assumed) above
Experimental: The initial rate of Spectrozyme PL hydrolysis by human plasmin (20 nM) was monitored from the linear increase in absorbance at 405 nm corresponding to less than 10% consumption of the substrate. […] The data were fitted by Michaelis-Menten Equation (2) to determine KM,app and VMAX: (2) V= VMAX [S]/KM+ [S] […]
Michaelis-Menten kinetics of Spectrozyme PL hydrolysis by plasmin in the presence of […]
The initial rate of Spectrozyme PL hydrolysis by human plasmin (20 nM) was monitored from the linear increase in absorbance at 405 nm corresponding to less than 10% consumption of the substrate. The initial rate was measured as a function of various concentrations of the substrate (0–400 μM) […]
50 mM Tris-HCl buffer, pH 7.4, 150 mM NaCl at 37 °C. The data were fitted by Michaelis-Menten Equation (2) to determine KM,app and VMAX. […]

Sequence of factor Xa (P00742 235-488 limits assumed): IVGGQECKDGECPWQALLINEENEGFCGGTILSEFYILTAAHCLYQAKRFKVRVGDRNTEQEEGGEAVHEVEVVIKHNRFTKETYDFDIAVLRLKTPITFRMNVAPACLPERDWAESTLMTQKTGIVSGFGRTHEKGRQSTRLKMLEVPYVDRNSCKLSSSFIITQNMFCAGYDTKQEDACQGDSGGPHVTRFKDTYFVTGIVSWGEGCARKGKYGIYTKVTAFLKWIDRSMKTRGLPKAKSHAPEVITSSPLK
Sequence of factor Xa (P00742 41-179 partner limits assumed): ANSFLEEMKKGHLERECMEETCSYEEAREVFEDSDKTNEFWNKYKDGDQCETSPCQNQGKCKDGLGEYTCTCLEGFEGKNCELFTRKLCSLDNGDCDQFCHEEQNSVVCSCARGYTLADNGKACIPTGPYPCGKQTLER

selectivity index for plasmin over factor Xa (factor Xa): about 5 fold | IC50 (factor Xa; pH 7.4, 37 °C, read-out: IC50 against factor Xa): > 250 µM | IC50 (thrombin): > 500 µM | IC50 (human Lys-plasmin; human plasmin 20 nM, 50 mM Tris-HCl pH 7.4, 150 mM NaCl, 37 °C, Spectrozyme PL): 76 ± 12 µM | HS (Hill slope) (human Lys-plasmin; logistic fit, pH 7.4, 37 °C): 1.0 ± 0.2 | Emax (human Lys-plasmin; pH 7.4, logistic fit, pH 7.4, 37 °C, read-out: ΔY% (efficacy, YM − Y0)): 72% | mechanism of plasmin inhibition (human plasmin; Michaelis-Menten kinetics, pH 7.4, 37 °C): uncompetitive inhibition | decrease in KM relative to absence of inhibitor (human plasmin; inhibitor 0 to 150 μM): approximately 3.5 fold | VMAX of Spectrozyme PL hydrolysis (human plasmin; inhibitor 15 μM): 52.9 ± 2.9 mAU/min | VMAX of Spectrozyme PL hydrolysis (human plasmin; inhibitor 30 μM): 37.0 ± 1.5 mAU/min | VMAX of Spectrozyme PL hydrolysis (human plasmin; inhibitor 75 μM): 34.8 ± 1.5 mAU/min | VMAX of Spectrozyme PL hydrolysis (human plasmin; inhibitor 150 μM): 26.4 ± 0.8 mAU/min
SMILES: O=c1c(OS(=O)(=O)O)c(-c2ccc(OS(=O)(=O)O)c(OS(=O)(=O)O)c2)oc2cc(OS(=O)(=O)O)cc(OCCCCOc3cc(OS(=O)(=O)O)cc4oc(-c5ccc(OS(=O)(=O)O)c(OS(=O)(=O)O)c5)c(OS(=O)(=O)O)c(=O)c34)c12 [compound 52, 5,5'-(Butane-1,4-diylbis(oxy))bis(2-(3,4-O,O-disulfonato-phenyl)-3,7-O,O-disulfonato-4H-chromen-4-one)]
